Measurements as given in patent publication US5750754A, “Heterocyclic compounds” (Zeneca Limited, priority 1993, dated 1998).
pIC50: −log10 of the molar value. Where a name gives a salt, the structure may show the parent alone.

The compounds below were run against T1, purified human platelet fibrinogen receptor (GPIIb/IIIa) (Homo sapiens, UniProt P05106+P08514) (assay: Test (b): GPIIb/IIIa ELISA, inhibition of biotinylated fibrinogen binding). Settings: Test (b): pIC50 (-log(IC50)), 50% inhibition of biotinylated fibrinogen binding to GPIIb/IIIa, purified human platelet GPIIb/IIIa, ELISA.
T1 construct: is isolated from human platelet lysates; from tissue
T1 sequence (P08514 32-887 limits assumed): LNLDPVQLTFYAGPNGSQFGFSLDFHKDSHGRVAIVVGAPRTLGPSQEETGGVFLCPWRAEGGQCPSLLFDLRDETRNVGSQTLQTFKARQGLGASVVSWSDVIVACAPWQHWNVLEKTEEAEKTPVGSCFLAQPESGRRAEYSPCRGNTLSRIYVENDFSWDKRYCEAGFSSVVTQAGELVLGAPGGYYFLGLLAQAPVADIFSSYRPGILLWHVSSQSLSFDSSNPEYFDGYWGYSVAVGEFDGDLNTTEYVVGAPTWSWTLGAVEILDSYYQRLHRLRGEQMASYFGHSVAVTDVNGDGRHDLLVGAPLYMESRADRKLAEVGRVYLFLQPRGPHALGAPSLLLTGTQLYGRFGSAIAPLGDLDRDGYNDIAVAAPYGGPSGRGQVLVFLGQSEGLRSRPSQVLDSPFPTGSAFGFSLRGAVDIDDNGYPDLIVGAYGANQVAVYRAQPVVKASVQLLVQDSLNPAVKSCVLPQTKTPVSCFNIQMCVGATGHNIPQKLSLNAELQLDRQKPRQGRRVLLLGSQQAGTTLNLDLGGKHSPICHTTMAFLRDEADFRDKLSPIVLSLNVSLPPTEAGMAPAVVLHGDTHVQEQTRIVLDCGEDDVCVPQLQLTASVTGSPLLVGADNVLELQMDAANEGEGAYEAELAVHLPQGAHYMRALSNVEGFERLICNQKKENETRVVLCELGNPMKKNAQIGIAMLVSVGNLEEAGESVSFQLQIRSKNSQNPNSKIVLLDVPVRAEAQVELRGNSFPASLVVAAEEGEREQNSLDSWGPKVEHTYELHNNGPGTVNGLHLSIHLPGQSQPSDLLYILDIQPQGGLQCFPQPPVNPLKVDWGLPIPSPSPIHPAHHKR
T1 sequence (P08514 891-1039 limits assumed): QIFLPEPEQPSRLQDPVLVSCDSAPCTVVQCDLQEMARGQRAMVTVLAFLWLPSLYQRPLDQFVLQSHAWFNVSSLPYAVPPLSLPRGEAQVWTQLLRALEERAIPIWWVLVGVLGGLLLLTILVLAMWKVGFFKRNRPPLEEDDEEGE
T1 sequence (P05106 27-788): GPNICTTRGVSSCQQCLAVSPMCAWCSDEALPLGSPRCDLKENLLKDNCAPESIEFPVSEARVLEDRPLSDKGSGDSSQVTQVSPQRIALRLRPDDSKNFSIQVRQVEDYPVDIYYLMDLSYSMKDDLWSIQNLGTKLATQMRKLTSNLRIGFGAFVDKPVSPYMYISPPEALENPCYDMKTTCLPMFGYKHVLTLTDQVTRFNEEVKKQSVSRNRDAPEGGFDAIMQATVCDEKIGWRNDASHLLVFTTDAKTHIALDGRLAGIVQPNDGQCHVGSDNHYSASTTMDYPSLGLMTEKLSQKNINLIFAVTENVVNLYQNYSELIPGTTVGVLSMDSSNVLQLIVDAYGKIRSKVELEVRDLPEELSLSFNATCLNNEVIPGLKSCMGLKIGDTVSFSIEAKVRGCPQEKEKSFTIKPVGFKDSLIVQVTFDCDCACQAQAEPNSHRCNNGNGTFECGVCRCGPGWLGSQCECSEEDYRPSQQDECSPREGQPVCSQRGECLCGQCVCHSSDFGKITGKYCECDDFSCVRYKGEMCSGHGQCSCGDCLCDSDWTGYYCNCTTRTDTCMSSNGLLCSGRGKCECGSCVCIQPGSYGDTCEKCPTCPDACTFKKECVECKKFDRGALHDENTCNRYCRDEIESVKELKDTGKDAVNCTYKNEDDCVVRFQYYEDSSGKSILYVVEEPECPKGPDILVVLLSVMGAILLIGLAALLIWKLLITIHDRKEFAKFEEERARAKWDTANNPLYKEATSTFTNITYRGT
Experimental: (i) Preparation of human platelet lysates.
Platelet rich plasma (PRP) is harvested by centrifugation (1000 rpm, 15 mins) of whole blood anticoaoulated with acid citrate dextrose (trisodium citrate 85 mM, citric acid 70 mM, d-glucose 110 mM) 1 part to 6 parts blood. Prostacyclin (PGI2, 1 μM) is added to the PRP before centrifugation (2400 pm, 15 mins) and the resulting pellet is resuspended in modified Tyrodes' solution (NaCl 130 mM, KCl 26 mM, NaHCO3 12 mM, NaH2 PO4 0.5 mM, MgCl2 1 mM, CaCl2 20 mM, Glucose 12 mM, HEPES 5 mM) containing bovine serum albumin 3.5 g/L, PGI2 1 μM and hirudin 0.5 U/ml. The platelet suspension is centrifuged (2400 rpm, 15 mins) and the resultant pellet resuspended in 500 μl of lysis buffer (octyl glucoside 50 mM, HEPES 10 mM, NaCl 150 mM, CaCl2 1 mM, MgCl2 1 mM, PMSF 1 mM, NEM 10 mM, leupeptin 0.1 mM), agitated at 4° C. for 15 minutes then centrifuged at 24000 rpm, 15 mins. The supernatant is stored at 4° C. and the pellet re-suspended in 500 μl of lysis buffer. The centrifugation process is repeated a further 3 tlimes, the pooled supernatants being stored at -70° C.
(ii) Receptor purification.
GP Ilb/Ila is isolated from human platelet lysates using a 2 ml peptide (KYGRGDS) coupled CNBr activated Sepharose affinity column. A 1.5 ml volume of platelet lysate is placed on the column and allowed to stand overnight at 4° C. Buffer (30 mls, octyl gluicoside 25 mM, HEPES 10 mM, NaCl 150 mM, CaCl2 1 mM, MgCl2 1 mM, PMSF 1 mM, NEM 10 mM, leupeptin 0.1 mM) is passed through the column and 2 ml fractions are collected throughout. GPIIb/IIIa is eluted with 12 mls of buffer containing HHLGGAKQAGDV (2 mg/ml, pH 7.5), the column is washed using 4 mls buffer and the remaining GPIIb/IIIa eluted using 12 mls buffer containing GRGDSPG (1 mg/ml pH 7.5). The column is finally washed using 20 mls of buffer and can be used for up to three such preparations. Fractions containing FGPIIb/IIIa are identified using gel electrophoresis and immunoblotting, pooled and stored at -70° C.
96 well microtitre plates are coated with 100 μl purified human platelet fibrinogen receptor (GPIIb/IIIa) diluted in coating buffer (Tris-HCl 20 mM, NaCl 150 mM, CaCl2 1 mM, pH 7.4) and left overnight at 4° C. The plates are washed using washing buffer (Tris-HCl 50 mM, NaCl 100 mM, CaCl2 2 mM, pH 7.4) and non-specific binding, blocked by the addition of 200 μl 2% BSA (2 hours, 30° C.). The plates are washed prior to incubation (2 hours, 30° C.) with 100 μl biotinylated fibrinogen ([…]) containing either vehicle or test compound. The plates are washed, incubated with streptavidin (5 μg/ml, 1 hour, ambient temperature), then washed again before the addition of 100 μl biotinylated horse radish peroxidase (0.1 μg/ml, 1 hour, ambient temperature). The plates are then washed and equal volumes of peroxidase substrate (3, 5, tetramethyl benzidine 0.4 g/l) and H2 O2 (0.02%) are mixed together immediately before addition of 150 μl to each well. Colour is allowed to develop for 10-15 mins before optical densities are read at 650 nm.
The concentration of compound required to cause 50% inhibition of biotinylated fibrinogen binding, is calculated and expressed as a pIC50 (-log(IC50)).

Row | Compound | pIC50
1 | COC(=O)COc1ccc(C(=O)C(C)N2CCN(c3ccncc3)CC2)cc1 (racemic) [Example 16, (RS) Methyl 4-[2-[4-(4-pyridyl)piperazin-1-yl]-2-methylacetyl]phenoxyacetate] | 6.70
2 | CC(C(=O)c1ccc(OCC(=O)O)cc1)N1CCN(c2ccncc2)CC1 (racemic) [Example 17, RS 4-[2-[4-(4-Pyridyl)piperazin-1-yl]2-methylacetyl]phenoxyacetic acid sodium chloride adduct dihydrate] | 7.70

Same assay, conditions: purified human platelet GPIIb/IIIa, ELISA; read-out: Test (b): pIC50 (-log(IC50)), 50% inhibition of biotinylated fibrinogen binding to GPIIb/IIIa (converted)

Row | Compound | IC50
3 | CCCCS(=O)(=O)NC(Cc1ccc(C(=O)CN2CCN(c3ccncc3)CC2)cc1)C(=O)OC (racemic) [Example 66, Methyl 2-RS-(n-butylsulphonylamino)-3-[4-[2-[4-(4-pyridyl)piperazin-1-yl]acetyl]phenyl]propionate] | 251 nM
4 | CCCCS(=O)(=O)NC(Cc1ccc(C(=O)CN2CCN(c3ccncc3)CC2)cc1)C(=O)O (racemic) [Example 67, 2-RS-(n-Butylsulphonylamino)-3-[4-[2-[4-(4-pyridyl)piperazine-1-yl]acetyl]phenyl]propionic acid] | 3.16 nM

These compounds were tested against T2, human, citrated, platelet-rich plasma (Homo sapiens, UniProt P05106+P08514) (assay: Test (a): inhibition of ADP stimulated platelet aggregation (Born)). Settings: ADP induced aggregation of human platelet-rich plasma.
T2 construct: aggregating human, citrated, platelet-rich plasma; endogenous in cells; host or cells: human platelets in citrated platelet-rich plasma
T2 sequence (P08514 32-887 limits assumed): as the sequence (P08514 32-887 limits assumed) above
T2 sequence (P08514 891-1039 limits assumed): as the sequence (P08514 891-1039 limits assumed) above
T2 sequence (P05106 27-788): as the sequence (P05106 27-788) above
Assay type: cell-based
Excerpt: (i) aggregating human, citrated, platelet-rich plasma by addition of adenosine diphosphate so as to generate a dose-response curve;
(ii) generating a dose-response curve for ADP stimulated platelet aggregation in the presence of increasing amounts of a test compound (generally in the range 10-^5 M to 10-^10 M); and
(iii) calculating a pA2 value indicating potency of platelet aggregation inhibition for the test compound, averaged over several concentrations, from the calculated 50% response value for ADP aggregation in the presence and absence of the test compound.

Row | Compound | Test (a): pA2 value indicating potency of platelet aggregation inhibition
5 | O=C(O)CCCCCOc1ccc(Nc2ccncc2)cc1 [Example 188, 6-[4-(4-Pridylamino)phenoxy]hexanoic acid hydrochloride] | 6.0

Same assay, conditions: ADP induced aggregation of human platelet-rich plasma; read-out: Test (a): pA2 value indicating potency of platelet aggregation inhibition (converted)

Row | Compound | Kb
6 | CCCCS(=O)(=O)NC(Cc1ccc(C(=O)CN2CCN(c3ccncc3)CC2)cc1)C(=O)OC (racemic) [Example 66, Methyl 2-RS-(n-butylsulphonylamino)-3-[4-[2-[4-(4-pyridyl)piperazin-1-yl]acetyl]phenyl]propionate] | 2000 nM
7 | CCCCS(=O)(=O)NC(Cc1ccc(C(=O)CN2CCN(c3ccncc3)CC2)cc1)C(=O)O (racemic) [Example 67, 2-RS-(n-Butylsulphonylamino)-3-[4-[2-[4-(4-pyridyl)piperazine-1-yl]acetyl]phenyl]propionic acid] | 2.51 nM
8 | CC(C)(C)OC(=O)NC(CCOc1ccc(N2CCN(c3ccncc3)CC2)cc1)C(=O)O (racemic) [Example 212, RS 2-t-Butoxycarbonylamino-4-[4-[4-(4-pyridyl)piperazin-1-yl]phenoxy]butyric acid] | 79.4 nM
9 | CCCCS(=O)(=O)NC(CCOc1ccc(N2CCN(c3ccncc3)CC2)cc1)C(=O)OC (racemic) [Example 218, RS Methyl 2-n-butanesulphonylamino-4-[4-[4-(4-pyridyl)piperazin-1-yl]phenoxy]butyrate] | 1000 nM
10 | CCCCS(=O)(=O)NC(CCOc1ccc(N2CCN(c3ccncc3)CC2)cc1)C(=O)O (racemic) [Example 219, RS 2-n-Butanesulphonylamino-4-[4-[4-(4-pyridyl)piperazin-1-yl]phenoxy]butyricacid] | 31.6 nM
11 | O=C(O)CC(COc1ccc(N2CCN(c3ccncc3)CC2)cc1)Cc1ccccc1 (racemic) [Example 220, RS 3-Benzyl-4-[4-[4-(4-pyridyl)piperazin-1-yl]phenoxy]-butyric acid] | 3160 nM
12 | O=C(O)CC(COc1ccc(N2CCN(c3ccncc3)CC2)cc1)c1ccccc1 (racemic) [Example 221, RS 3-Phenyl-4-[4-[4-(4-pyridyl)piperazin-1-yl]phenoxy]-butyric acid] | 158 nM
13 | O=C(O)CCCc1ccc(CN2CCN(c3ccncc3)CC2)cc1 [Example 180, 4-[4-[4-(4-Pyridyl)piperazin-1yl]methylphenyl]butyric acid, dihydrochloride] | 3160 nM
14 | CCOC(=O)CCCCCOc1ccc(Nc2ccncc2)cc1 [Example 187, Ethyl 6-[4-(4-pyridylamino)phenoxy]hexanoate] | 15800 nM
15 | O=C(O)CCC(=O)Nc1ccc(N2CCN(c3ccncc3)CC2)cc1 [Example 199, 4-Oxo-4-[4-[4-(4-pyridyl)piperazine-1-yl]phenyl]aminobutyric acid] | 501 nM
16 | C=CCc1cc(N2CCN(c3ccncc3)CC2)ccc1OCCCC(=O)OCC [Example 205, Ethyl 4-[2-allyl-4-[4-(4-pyridyl)piperazin-1-yl]phenoxy]butyrate] | 251 nM
17 | CCCc1cc(N2CCN(c3ccncc3)CC2)ccc1OCCCC(=O)O [Example 208, 4-[2-n-Propyl4-[4-(4-pyridyl)piperazin-1-yl]phenoxy]butyric acid] | 316 nM
18 | CCOC(=O)CCCOc1ccc(N2CCN(c3ccncc3)CC2)cc1C [Example 209, Ethyl 4-[2-methyl-4-[4-(4-pyridyl)piperazin-1-yl]phenoxy]butyrate] | 200 nM
19 | Cc1cc(N2CCN(c3ccncc3)CC2)ccc1OCCCC(=O)O [Example 210, 4-[2-Methyl-4-[4-(4-pyridyl)piperazin-1-yl]phenoxy]-butyric acid] | 316 nM
20 | CCOC(=O)COc1ccc(C(=O)CN2CCN(c3ccncc3)CC2=O)cc1 [Example 215, Ethyl 4-[2-[4-(4-pyridyl)piperazin-2-one-1-yl]acetyl]phenoxyacetate] | 126 nM
21 | CCOC(=O)CNC(=O)COc1ccc(C(=O)CN2CCN(c3ccncc3)CC2=O)cc1 [Example 216, Ethyl N 4-[2-(4-(4-pyridyl)piperazin-2-one-1-yl)acetyl]phenoxyacetylglycinate] | 2000 nM
22 | CCOC(=O)CCCOc1ccc(N2CCN(c3ccncc3)CC2)cc1[N+](=O)[O-] [Example 217, Ethyl 4-[2-nitro-4-[4-(4-pyridyl)piperazin-1-yl]phenoxy]butyrate] | 316 nM
23 | CN(C)c1ccncc1CCCOc1ccc(C[C@H](NC(=O)OCc2ccccc2)C(=O)O)cc1 [Example 225] | 158 nM
24 | COC(=O)c1ccc(Oc2ccc(N3CCN(c4ccncc4)CC3)cc2)nc1 [Example 232, Methyl 6-[4-[4-(4-pyridyl)piperazin-1-yl]phenoxy]pyridine-3-carbxylate] | 31600 nM
25 | O=C(O)CCN(Cc1ccccc1)C(=O)c1ccc(N2CCN(c3ccncc3)CC2)cc1 [Example 236, 3-[4-[4-(4-Pyridyl)piperazin-1-yl]]-N-benzylbenzamidopropionic acid] | 794 nM
26 | O=C(O)CN1CCC(Oc2ccc(N3CCN(c4ccncc4)CC3)cc2)CC1 [Example 238, 4-[4-[4-(Pyridyl)piperazin-1-yl]phenoxy]piperidineacetic acid] | 1260 nM
27 | O=C(O)CN1CCCC(Oc2ccc(N3CCN(c4ccncc4)CC3)cc2)C1 (stereo not drawn) [Example 239] | 2510 nM
28 | CCCc1cc(C(=O)CN2CCN(c3ccncc3)CC2=O)ccc1OCC(=O)O [Example 240, [2-Propyl-4-[2-[4-(4-pyridyl)piperazin-2-one-1-yl]acetyl]]phenoxyacetic acid] | 25.1 nM
29 | Cc1cc(C(=O)CN2CCN(c3ccncc3)CC2=O)ccc1OCC(=O)O [Example 241, [2-Methyl-4-[2-[4-(4-pyridyl)piperazin-2-one-1-yl]acetyl]]phenoxyacetic acid] | 6.31 nM
30 | CCOC(=O)CCCOc1ccc(N2CCN(c3ccncc3)CC2=O)cc1 [Example 242, Ethyl 4-[4-[4-(4-pyridyl)piperazin-2-one-1yl]phenoxy]butyrate] | 316 nM
31 | O=C(O)CCCOc1ccc(N2CCN(c3ccncc3)CC2=O)cc1 [Example 243, 4-[4-[4-(4-Pyridyl)piperazin-2-one-1-yl]phenoxy]butyric acid] | 10 nM

Same assay, conditions: Test (a): pA2 value indicating potency of platelet aggregation inhibition, ADP induced aggregation of human platelet-rich plasma

Row | Compound | Kb
32 | COC(=O)COc1ccc(C(=O)C(C)N2CCN(c3ccncc3)CC2)cc1 (racemic) [Example 16, (RS) Methyl 4-[2-[4-(4-pyridyl)piperazin-1-yl]-2-methylacetyl]phenoxyacetate] | 158 nM
33 | CC(C(=O)c1ccc(OCC(=O)O)cc1)N1CCN(c2ccncc2)CC1 (racemic) [Example 17, RS 4-[2-[4-(4-Pyridyl)piperazin-1-yl]2-methylacetyl]phenoxyacetic acid sodium chloride adduct dihydrate] | 39.8 nM
